PMC10572602, “Molecular Mechanism of STIL Coiled-Coil Domain Oligomerization” (International Journal of Molecular Sciences, 2023)

Columns and labels:
[1] = ref [14]; cited from earlier work
From the text: Presumably, this is due to the disruption of the hydrophobic CC interactions upon mutation from the hydrophobic Leu to the charged Glu. […] Other ...

[2] = system: STIL CCD peptide; experiment: AUC sedimentation equilibrium (SE), oligomeric state; format: physicochemical; conditions: starting concentration 500 µM, triplicate, absorbance 280 nm, 95% confidence limits
Protocol: To quantify the dissociation constants of the possible monomer-dimer and dimer-tetramer transitions, we used fluorescence-based binding measurements. Using micro-scale thermophoresis, fluorescence measurements were taken at increasing concentrations of WT CCD peptide in a fixed background of 5 µM fluorophore-labelled peptide. […] Fitting the fluorescence data to the Hill equation provided a dissociation constant of 8 ± 2 µM and a cooperativity of 1.2 ± 0.3 (Figure 2B, Table S4). We interpret this as being for the monomer-dimer transition, and that the fluorescence measurements are insensitive to the higher-order oligomerization. […] To probe the possible dimer-tetramer transition, we turned to AUC-SE measurements with starting concentrations of 5, 10, and 20 µM of STIL WT CCD peptide (Figures S18 and S19). The equilibrated data were fitted first to a model for a single ideal species, which provided a species 2.9 × monomer mass (Table 1). […] It should be noted that the dimerization constant of the WT peptide was measured in the presence of 5% DMSO and using a fluorophore-labeled peptide, while the tetramerization constant was measured without DMSO and unlabeled peptides. The addition of the label and the presence of the DMSO, which was unavoidable for making the labeled peptide soluble, may have affected the measured dimerization constant. Thus, we avoid directly comparing the values obtained by the two methods.
(§1) Analytical ultracentrifugation (AUC) experiments were carried out using a Beckman Optima XL-A or XL-I analytical ultracentrifuge. Measurements were performed at 20 °C unless otherwise stated, using an An-50 or An-60 rotor, in Sodium Phosphate Buffer pH 6.8 (25 mM Na2PO4 with addition of 137 mM NaCl, pH measured using Jenway (TM) 3510 benchtop and adjusted using 1M HCl and 1M NaOH solutions). The partial specific volume ( υ¯ ) for each peptide were calculated in Sedfit using values from Cohn and Edsall. The buffer densities and viscosities were calculated using UltraScan III [54].
AUC sedimentation equilibrium (SE) experiments were run at multiple concentrations in a 6-Channel Epon charcoal-filled centerpiece. The samples were centrifuged at a range of speeds between 22–48 krpm. Absorbance scans across the radial range were recorded twice at each speed to ensure equilibration. Data were fitted to single, ideal species models or monomer-dimer equilibrium using Sedphat. In total, 95% confidence limits were obtained via Monte-Carlo analysis of the obtained fits. The quality of the fit was evaluated using the χ^2 parameter to observe which model best fit the data. Both fits of the data, where performed in Figures S18–S23 with their corresponding fit information.

[3] = CD spectroscopy, helicity; format: physicochemical; conditions: 5 °C
From the text: Next, we used circular dichroism (CD) spectroscopy to probe the secondary structures of these WT CCD peptide assemblies. […] The spectra all had minima at 208 and 222 nm indicative of largely α-helical structures. From the high-concentration spectra we estimated ≈47% helix. To compare how the stabilities of these helical assemblies changed with concentration, we followed the changes in MRE222 with temperature over the same concentration range (Figure 2D, Table S1). Sigmoidal curves indicative of cooperative unfolding were apparent at all concentrations, indicating a cooperatively folded, oligomeric species. […] The temperature-dependent CD measurements were performed to determine the oligomerization-dependent thermal stability of the CCD. […] CD spectra of the peptides were recorded using a J-810 spectropolarimeter (Jasco) in a 0.1 cm and 1 cm quartz cuvette for far-UV CD spectroscopy, in a spectral range of 190 nm to 260 nm. The buffer used in the CD measurements was 25 mM sodium phosphate buffer pH = 6.8 with ionic strength of 154 mM (adjected by NaCl). The thermal melting of all STIL CCD peptides were measured as described. The graphs were fitted to Boltzmann equation in order to generate the Tm. Normalization to mean residue ellipticity was performed. The 100% helicity was calculated (with normalization to the length of the peptide and the condition of the measurement) as MRE × 10^−3 of −38 (Deg × cm^2 × dmol^−1 × res^−1).

[4] = system: STIL CCD peptide; experiment: AUC sedimentation velocity (SV), oligomeric state; format: physicochemical; conditions: for sw / mw (solution mass from c(s) fit) / f/f0 / sw(20,w) / oligomeric state (average number of monomers in the oligomer): AUC-SV, 60 krpm; for sw / mw (solution mass from c(s) fit) / oligomeric state (average number of monomers in the oligomer): 20 °C; for sw / mw (solution mass from c(s) fit) / f/f0 / sw(20,w): pH 6.8; for mw (solution mass from c(s) fit) / oligomeric state (average number of monomers in the oligomer): 95% confidence level; for oligomeric state (average number of monomers in the oligomer): continuous c(s), 25 mM sodium phosphate pH 6.8, NaCl
Protocol: Previously, we and others have shown by size-exclusion chromatography and multi-angle light scattering that the oligomerization of a STIL CCD peptide is concentration dependent. However, these studies were qualitative and the interaction was not quantified. To quantify the oligomerisation of the STIL CCD peptide, analytical ultracentrifugation (AUC) sedimentation velocity (SV) and sedimentation equilibrium (SE) experiments were performed (Figure 2A, Table 1 and Figures S4–S9, S18 and S19). AUC-SV experiments were conducted at several concentrations to explore how the oligomeric state changed with concentration in the low-to-high µM concentration range, and also to estimate the dissociation constants of the oligomerization of the STIL CCD peptide.
as §1
Sedimentation velocity (SV) experiments were performed in EPON 2-channel centerpieces with quartz windows or aluminium centrepieces with sapphire windows. The samples were centrifuged at 50 or 60 krpm where stated, with absorbance measurements taken from a radial range of 5.7–7.3 cm. 120 scans were taken at 5 min intervals, the data were fit in Sedfit to a continuous c(s) distribution model at a 95% confidence level. The frictional ration and baseline were floated, and Time-invariant and Radial-invariant noise were fit. Initially data were fit between a range of Svedberg ratio of 0–15, but this was reduced to 0–3 for all data as there were no larger species. The residuals for each individual fit are shown in Figures S14–S17 as a bitmap in which the color indicates the difference between the model fit and the raw data over the radial range to which the data were fitted. The scans are in vertical chronological order.

[5] = biological target: T1, STIL CCD peptide (Homo sapiens, UniProt Q15468, L736E); experiment: Fluorescence-based binding (micro-scale thermophoresis instrument), self-association; conditions: 5 µM labeled + unlabelled same peptide 9 nM–300 µM; 25 mM Na2PO4 pH 6.8, 5% DMSO
T1 construct: STIL CCD718–749 WT; made in house; host or cells: chemical synthesis (Fmoc-SPPS on rink amide, C-terminal amide)
T1 sequence (Q15468 718-749 L736E): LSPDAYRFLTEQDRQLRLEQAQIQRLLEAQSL

mass, single species model, SE [2]: 3038 ± 292 Da
AUC oligomeric state, SE ([2]; single species fit, 20 °C, pH 6.8): 0.79 ± 0.08 (500 µM) × monomer mass
concentration dependence of CD spectrum / helical folding (in words) ([3]; different peptide concentrations (WT 5–100 µM), pH 6.8): no concentration dependence
MRE222 nm ([3]; CD at 50 µM, 25 mM sodium phosphate pH 6.8, 154 mM NaCl): −23.3 kdeg cm^2 dmol^−1 res^−1
% Helicity ([3]; from MRE222 (100% = −38), CD at 50 µM, 25 mM sodium phosphate pH 6.8, 154 mM NaCl): 62%
Oligomeric State (at 10 µM) ([4]; 10 µM): Monomer
sw ([4]; 10 µM): 0.590 S
mw (solution mass from c(s) fit) ([4]; 10 µM): 3849 Da
f/f0 ([4]; 10 µM): 1.460
sw(20,w) ([4]; 10 µM): 0.608 S
oligomeric state (average number of monomers in the oligomer) ([4]; 10 µM, absorbance): 1.00 × monomer mass
oligomeric state (average number of monomers in the oligomer) ([4]; 10 µM, absorbance, listed as CCD718–749-L736E): 1 × monomer mass
oligomeric state (average number of monomers in the oligomer) ([4]; 10 µM, absorbance, listed as STIL-L736E): 1.0 × monomer mass
sw ([4]; 500 µM): 0.721 S
mw (solution mass from c(s) fit) ([4]; 500 µM): 3871 Da
f/f0 ([4]; 500 µM): 1.201
sw(20,w) ([4]; 500 µM): 0.742 S
oligomeric state (average number of monomers in the oligomer) ([4]; 500 µM): 1 × monomer mass
oligomeric state (average number of monomers in the oligomer) ([4]; 500 µM, listed as STIL-L736E): 1.0 × monomer mass
binding or oligomerization (in words) [5]: no binding or oligomerization
Substance: L SPDAYRF LTEQDRQ LRLEQAQ IQRLLEA QSL-NH2 [STIL CCD718–749 L736E, STIL CCD peptide with destabilising L736E mutation; PDB 8oyk]
thermal stability of mutant peptide (in words) [1]: leads to a decrease in its thermal stability
